{"source": "patent US10081624B2", "about": "“Heterocyclic compound” (Takeda Pharmaceutical Company Limited, priority 2014, dated 2018)", "data": [{"biological_target": "T1, HDAC6 enzyme (Homo sapiens, UniProt Q9UBN7)", "T1 construct": "prepared by transducing full length HDAC1 and HDAC6 genes into Sf-9 insect cells; GST; purchased SignalChem; host or cells: Sf-9 insect cells", "T1 sequence (Q9UBN7 1-1215)": "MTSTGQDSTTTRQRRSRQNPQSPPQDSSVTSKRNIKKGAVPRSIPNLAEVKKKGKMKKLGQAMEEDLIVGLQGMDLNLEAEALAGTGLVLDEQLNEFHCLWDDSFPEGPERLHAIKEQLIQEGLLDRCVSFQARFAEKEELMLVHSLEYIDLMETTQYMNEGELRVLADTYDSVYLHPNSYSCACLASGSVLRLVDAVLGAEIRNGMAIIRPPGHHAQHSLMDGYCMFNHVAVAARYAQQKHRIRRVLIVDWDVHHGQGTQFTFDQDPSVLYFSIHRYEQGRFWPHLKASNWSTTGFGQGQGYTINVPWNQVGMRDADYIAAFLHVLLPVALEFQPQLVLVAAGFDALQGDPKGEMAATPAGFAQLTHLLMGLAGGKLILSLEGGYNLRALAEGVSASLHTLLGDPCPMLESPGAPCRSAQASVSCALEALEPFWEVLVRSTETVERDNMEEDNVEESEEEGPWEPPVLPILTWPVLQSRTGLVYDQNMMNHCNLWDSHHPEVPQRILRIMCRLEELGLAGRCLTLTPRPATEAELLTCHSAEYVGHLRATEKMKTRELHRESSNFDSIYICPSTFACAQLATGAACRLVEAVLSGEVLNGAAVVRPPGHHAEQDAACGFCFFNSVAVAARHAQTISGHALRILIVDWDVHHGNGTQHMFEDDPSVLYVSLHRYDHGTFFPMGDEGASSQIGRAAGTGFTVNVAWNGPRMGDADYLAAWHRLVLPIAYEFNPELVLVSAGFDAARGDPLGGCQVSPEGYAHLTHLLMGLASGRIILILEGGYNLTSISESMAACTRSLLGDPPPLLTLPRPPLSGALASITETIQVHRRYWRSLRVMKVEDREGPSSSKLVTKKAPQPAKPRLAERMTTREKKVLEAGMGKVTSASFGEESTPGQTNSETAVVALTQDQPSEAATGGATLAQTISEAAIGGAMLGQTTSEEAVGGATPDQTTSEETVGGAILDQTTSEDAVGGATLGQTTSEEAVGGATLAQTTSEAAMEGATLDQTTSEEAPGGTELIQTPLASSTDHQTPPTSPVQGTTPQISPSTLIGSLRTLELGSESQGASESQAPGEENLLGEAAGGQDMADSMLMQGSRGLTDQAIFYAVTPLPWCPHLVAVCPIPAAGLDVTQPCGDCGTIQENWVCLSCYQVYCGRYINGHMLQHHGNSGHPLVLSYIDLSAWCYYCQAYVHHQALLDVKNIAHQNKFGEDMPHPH", "assay": "HDAC6 enzyme inhibitory assay (HDAC-Glo I/II Assay kit)", "format": "biochemical", "conditions": "1 μM test compound; read-out: HDAC6 inhibitory rate (%) (1 μM)", "method": "HDAC1 enzyme and HDAC6 enzyme each prepared by transducing full length HDAC1 and HDAC6 genes into Sf-9 insect cells and purifying by GST affinity column were purchased from SignalChem. Using these enzymes, HDAC1 and/or HDAC6 enzyme inhibitory activities of the compound of the present invention were evaluated. Enzymes were used after preserved at −70° C. HDAC1 or HDAC6 enzyme inhibitory activity of the compound of the present invention was measured using HDAC-Glo™ I/II Assay kit (Promega) according to the following experimental method. The test compound diluted with assay buffer (24 mM Tris-HCl (pH 7.5), 1 mM MgCl2, 0.35 mM KCl, 135 mM NaCl, 0.6 mM Glutathione, 0.01% Tween-20) was added to a 384-well plate by each 2 μL. Then, HDAC1 or HDAC6 enzyme solution diluted with assay buffer was added thereto by each 4 μL, and the plate was incubated at room temperature for 60 min. After incubated, HDAC substrate-Developer solution prepared according to Promega protocol attached to the assay kit was added to the 384-well plate by each 2 μL, and the enzyme reaction was started. After reacting at room temperature for 20 min, luminescence level was measured using plate reader Envision (PerkinElmer). The inhibitory activity of each compound was calculated as a relative activity value when luminescence level in wells without enzyme is considered as 100% inhibition.", "units": {"inhibition at 1 µM": "%"}, "values": [{"compound": "Cn1ccc(C(=O)N2CCOC[C@@H]2CNC(=O)c2ccc(-c3noc(C(F)(F)F)n3)cc2)n1", "note": "[Example 65, N-(((3S)-4-((1-methyl-1H-pyrazol-3-yl)carbonyl)morpholin-3-yl)methyl)-4-(5-(trifluoromethyl)-1,2,4-oxadiazol-3-yl)benzamide]", "inhibition at 1 µM": 75}, {"compound": "Cn1cnc(C(=O)N2CCOCC2CNC(=O)c2ccc(-c3noc(C(F)(F)F)n3)cc2)c1", "note": "(stereo not shown) [Example 17, N-((4-((1-methyl-1H-imidazol-4-yl)carbonyl)morpholin-3-yl)methyl)-4-(5-(trifluoromethyl)-1,2,4-oxadiazol-3-yl)benzamide]", "inhibition at 1 µM": 61}, {"compound": "O=C(NCC1COCCN1C(=O)c1cccnc1)c1ccc(-c2noc(C(F)(F)F)n2)s1", "note": "(stereo not shown) [Example 225, N-((4-(pyridin-3-ylcarbonyl)morpholin-3-yl)methyl)-5-(5-(trifluoromethyl)-1,2,4-oxadiazol-3-yl)thiophene-2-carboxamide]", "inhibition at 1 µM": 92}, {"compound": "Cn1nc(C(F)(F)F)cc1C(=O)N1CCOCC1CNC(=O)c1ccc(-c2noc(C(F)(F)F)n2)s1", "note": "(stereo not shown) [Example 231, N-((4-((1-methyl-3-(trifluoromethyl)-1H-pyrazol-5-yl)carbonyl)morpholin-3-yl)methyl)-5-(5-(trifluoromethyl)-1,2,4-oxadiazol-3-yl)thiophene-2-carboxamide]", "inhibition at 1 µM": 92}, {"compound": "O=C(NCC1COCCN1C(=O)c1cccc(Cl)c1)c1ccc(-c2noc(C(F)(F)F)n2)s1", "note": "(stereo not shown) [Example 215, N-((4-(3-chlorobenzoyl)morpholin-3-yl)methyl)-5-(5-(trifluoromethyl)-1,2,4-oxadiazol-3-yl)thiophene-2-carboxamide]", "inhibition at 1 µM": 94}, {"compound": "O=C(NCC1COCCN1C(=O)c1ccccn1)c1ccc(-c2noc(C(F)(F)F)n2)s1", "note": "(stereo not shown) [Example 224, N-((4-(pyridin-2-ylcarbonyl)morpholin-3-yl)methyl)-5-(5-(trifluoromethyl)-1,2,4-oxadiazol-3-yl)thiophene-2-carboxamide]", "inhibition at 1 µM": 92}, {"compound": "O=C(NCC1COCCN1C(=O)c1ccno1)c1ccc(-c2noc(C(F)(F)F)n2)s1", "note": "(stereo not shown) [Example 239, N-((4-(1,2-oxazol-5-ylcarbonyl)morpholin-3-yl)methyl)-5-(5-(trifluoromethyl)-1,2,4-oxadiazol-3-yl)thiophene-2-carboxamide]", "inhibition at 1 µM": 97}, {"compound": "N#Cc1cccc(C(=O)N2CCOC[C@@H]2CNC(=O)c2ccc(-c3noc(C(F)(F)F)n3)cn2)c1", "note": "[Example 188, N-(((3S)-4-(3-cyanobenzoyl)morpholin-3-yl)methyl)-5-(5-(trifluoromethyl)-1,2,4-oxadiazol-3-yl)pyridine-2-carboxamide]", "inhibition at 1 µM": 95}, {"compound": "O=C(NCC1Cc2ccccc2CN1C(=O)c1cc(Cl)cc(Cl)c1)c1ccc(-c2noc(C(F)(F)F)n2)cc1", "note": "(stereo not shown) [Example 176, N-((2-(3,5-dichlorobenzoyl)-1,2,3,4-tetrahydroisoquinolin-3-yl)methyl)-4-(5-(trifluoromethyl)-1,2,4-oxadiazol-3-yl)benzamide]", "inhibition at 1 µM": 82}, {"compound": "Cn1ccnc1C(=O)N1CCOCC1CNC(=O)c1ccc(-c2noc(C(F)(F)F)n2)cc1", "note": "(stereo not shown) [Example 16, N-((4-((1-methyl-1H-imidazol-2-yl)carbonyl)morpholin-3-yl)methyl)-4-(5-(trifluoromethyl)-1,2,4-oxadiazol-3-yl)benzamide]", "inhibition at 1 µM": 93}, {"compound": "Cn1ccnc1C(=O)N1CCOCC1CNC(=O)c1ccc(-c2noc(C(F)(F)F)n2)s1", "note": "(stereo not shown) [Example 228, N-((4-((1-methyl-1H-imidazol-2-yl)carbonyl)morpholin-3-yl)methyl)-5-(5-(trifluoromethyl)-1,2,4-oxadiazol-3-yl)thiophene-2-carboxamide]", "inhibition at 1 µM": 77}, {"compound": "O=C(NC[C@H]1COCCN1C(=O)c1ccncc1)c1ccc(-c2noc(C(F)(F)F)n2)cn1", "note": "[Example 191, N-(((3S)-4-isonicotinoylmorpholin-3-yl)methyl)-5-(5-(trifluoromethyl)-1,2,4-oxadiazol-3-yl)pyridine-2-carboxamide]", "inhibition at 1 µM": 96}, {"compound": "O=C(NC[C@@H]1COCCN1C(=O)C(c1ccccc1)c1ccccc1)c1ccc(-c2noc(C(F)(F)F)n2)cc1", "note": "[Example 129, N-(((3R)-4-(diphenylacetyl)morpholin-3-yl)methyl)-4-(5-(trifluoromethyl)-1,2,4-oxadiazol-3-yl)benzamide]", "inhibition at 1 µM": 53}, {"compound": "N#Cc1ccc(C(=O)N2CCOC[C@@H]2CNC(=O)c2ccc(-c3noc(C(F)(F)F)n3)cn2)cc1", "note": "[Example 190, N-(((3S)-4-(4-cyanobenzoyl)morpholin-3-yl)methyl)-5-(5-(trifluoromethyl)-1,2,4-oxadiazol-3-yl)pyridine-2-carboxamide]", "inhibition at 1 µM": 95}, {"compound": "O=C(NC[C@H]1COCCN1C(=O)CC1CC1)c1ccc(-c2noc(C(F)(F)F)n2)cc1", "note": "[Example 76, N-(((3S)-4-(cyclopropylacetyl)morpholin-3-yl)methyl)-4-(5-(trifluoromethyl)-1,2,4-oxadiazol-3-yl)benzamide]", "inhibition at 1 µM": 90}, {"compound": "Cc1csc(C(=O)N2CCOCC2CNC(=O)c2ccc(-c3noc(C(F)(F)F)n3)s2)c1", "note": "(stereo not shown) [Example 243, N-((4-((4-methyl-2-thienyl)carbonyl)morpholin-3-yl)methyl)-5-(5-(trifluoromethyl)-1,2,4-oxadiazol-3-yl)thiophene-2-carboxamide]", "inhibition at 1 µM": 93}, {"compound": "O=C(NC[C@H]1COCCN1C(=O)C(c1ccccc1)c1ccccc1)c1ccc(-c2noc(C(F)(F)F)n2)cc1", "note": "[Example 57, N-(((3S)-4-(diphenylacetyl)morpholin-3-yl)methyl)-4-(5-(trifluoromethyl)-1,2,4-oxadiazol-3-yl)benzamide]", "inhibition at 1 µM": 56}, {"compound": "O=C(NC[C@H]1COCCN1C(=O)C1CCc2ccccc2O1)c1ccc(-c2noc(C(F)(F)F)n2)cn1", "note": "(stereo partly drawn) [Example 199, N-(((3S)-4-(3,4-dihydro-2H-chromen-2-ylcarbonyl)morpholin-3-yl)methyl)-5-(5-(trifluoromethyl)-1,2,4-oxadiazol-3-yl)pyridine-2-carboxamide]", "inhibition at 1 µM": 94}, {"compound": "COc1cccc(C(=O)N2CCOCC2CNC(=O)c2ccc(-c3noc(C(F)(F)F)n3)cc2)c1", "note": "(stereo in doubt) [Example 114, N-(((3R)-4-(3-methoxybenzoyl)morpholin-3-yl)methyl)-4-(5-(trifluoromethyl)-1,2,4-oxadiazol-3-yl)benzamide]", "inhibition at 1 µM": 92}, {"compound": "N#Cc1cccc(C(=O)N2CCOCC2CNC(=O)c2ccc(-c3noc(C(F)(F)F)n3)s2)c1", "note": "(stereo not shown) [Example 218, N-((4-(3-cyanobenzoyl)morpholin-3-yl)methyl)-5-(5-(trifluoromethyl)-1,2,4-oxadiazol-3-yl)thiophene-2-carboxamide]", "inhibition at 1 µM": 91}, {"compound": "O=C(NCC1COCCN1C(=O)c1ccc(Cl)cc1)c1ccc(-c2noc(C(F)(F)F)n2)s1", "note": "(stereo not shown) [Example 216, N-((4-(4-chlorobenzoyl)morpholin-3-yl)methyl)-5-(5-(trifluoromethyl)-1,2,4-oxadiazol-3-yl)thiophene-2-carboxamide]", "inhibition at 1 µM": 93}, {"compound": "Cc1nnsc1C(=O)N1CCOC[C@H]1CNC(=O)c1ccc(-c2noc(C(F)(F)F)n2)cc1", "note": "[Example 140, N-(((3R)-4-((4-methyl-1,2,3-thiadiazol-5-yl)carbonyl)morpholin-3-yl)methyl)-4-(5-(trifluoromethyl)-1,2,4-oxadiazol-3-yl)benzamide]", "inhibition at 1 µM": 92}]}]}
